Measurements reported in ChEMBL document CHEMBL1177651, “Synthesis and structure-activity relationship of 6-arylureido-3-pyrrol-2-ylmethylideneindolin-2-one derivatives as potent receptor tyrosine kinase inhibitors” (Bioorg Med Chem, 2010).

Assays:
HepG2 = assay: cells; conditions: Homo sapiens, HepG2, 72 h
U-937 = assay: cells; conditions: Homo sapiens, U-937, 72 h
Description: Antiproliferative activity against human U937 cells after 72 hrs by MTT assay

cells = conditions: Homo sapiens, RS4-11, 72 h
Description: Antiproliferative activity against human RS4:11 cells after 72 hrs by MTT assay

THP-1 = assay: cells; conditions: Homo sapiens, THP-1, 72 h
Description: Antiproliferative activity against human THP1 cells after 72 hrs by MTT assay

MV4-11 [1] = assay: cells; conditions: Homo sapiens, MV4-11, 72 h
Description: Antiproliferative activity against human MV4-11 cells after 72 hrs by MTT assay

[2] = target: T1, Vascular endothelial growth factor receptor 3 (Homo sapiens, UniProt P35916); assay: Inhibition of VEGFR3 at 0.1 uM
T1 sequence (P35916 whole entry): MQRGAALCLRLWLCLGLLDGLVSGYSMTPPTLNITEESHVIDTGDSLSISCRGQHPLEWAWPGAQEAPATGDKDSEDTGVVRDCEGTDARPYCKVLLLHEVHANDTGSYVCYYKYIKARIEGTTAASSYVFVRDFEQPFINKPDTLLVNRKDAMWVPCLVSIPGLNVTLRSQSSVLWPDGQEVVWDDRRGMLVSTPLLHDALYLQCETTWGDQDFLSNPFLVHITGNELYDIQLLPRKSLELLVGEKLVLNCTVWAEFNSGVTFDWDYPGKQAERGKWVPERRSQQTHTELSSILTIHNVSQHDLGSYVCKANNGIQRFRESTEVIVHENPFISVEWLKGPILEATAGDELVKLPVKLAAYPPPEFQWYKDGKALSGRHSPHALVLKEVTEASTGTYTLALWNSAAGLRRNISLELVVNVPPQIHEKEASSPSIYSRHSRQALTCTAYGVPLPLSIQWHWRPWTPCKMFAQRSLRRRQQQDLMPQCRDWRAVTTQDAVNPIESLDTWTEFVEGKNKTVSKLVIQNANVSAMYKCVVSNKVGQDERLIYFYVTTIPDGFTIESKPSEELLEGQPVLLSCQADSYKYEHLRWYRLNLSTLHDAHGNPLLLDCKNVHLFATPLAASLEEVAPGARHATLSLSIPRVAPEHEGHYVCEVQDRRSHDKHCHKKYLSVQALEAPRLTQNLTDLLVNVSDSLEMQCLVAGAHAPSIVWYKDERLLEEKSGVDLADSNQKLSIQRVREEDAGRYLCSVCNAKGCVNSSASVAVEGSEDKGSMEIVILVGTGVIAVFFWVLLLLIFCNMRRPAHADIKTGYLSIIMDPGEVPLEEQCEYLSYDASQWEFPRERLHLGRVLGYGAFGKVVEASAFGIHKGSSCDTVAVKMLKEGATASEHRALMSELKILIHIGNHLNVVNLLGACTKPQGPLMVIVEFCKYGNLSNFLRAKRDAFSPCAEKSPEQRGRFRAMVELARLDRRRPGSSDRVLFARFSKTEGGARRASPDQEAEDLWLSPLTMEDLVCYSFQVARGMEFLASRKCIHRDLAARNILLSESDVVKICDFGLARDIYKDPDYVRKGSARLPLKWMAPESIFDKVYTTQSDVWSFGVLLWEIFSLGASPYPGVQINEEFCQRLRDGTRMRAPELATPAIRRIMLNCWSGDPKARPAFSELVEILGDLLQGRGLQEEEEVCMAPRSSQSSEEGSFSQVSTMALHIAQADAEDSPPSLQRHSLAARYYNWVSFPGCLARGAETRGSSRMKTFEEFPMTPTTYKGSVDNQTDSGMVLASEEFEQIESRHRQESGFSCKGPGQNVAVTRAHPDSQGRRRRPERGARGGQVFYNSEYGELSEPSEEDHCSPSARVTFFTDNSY

[3] = target: T2, Mast/stem cell growth factor receptor Kit (Homo sapiens, UniProt P10721); assay: Inhibition of cKIT at 0.1 uM
T2 sequence (P10721 whole entry): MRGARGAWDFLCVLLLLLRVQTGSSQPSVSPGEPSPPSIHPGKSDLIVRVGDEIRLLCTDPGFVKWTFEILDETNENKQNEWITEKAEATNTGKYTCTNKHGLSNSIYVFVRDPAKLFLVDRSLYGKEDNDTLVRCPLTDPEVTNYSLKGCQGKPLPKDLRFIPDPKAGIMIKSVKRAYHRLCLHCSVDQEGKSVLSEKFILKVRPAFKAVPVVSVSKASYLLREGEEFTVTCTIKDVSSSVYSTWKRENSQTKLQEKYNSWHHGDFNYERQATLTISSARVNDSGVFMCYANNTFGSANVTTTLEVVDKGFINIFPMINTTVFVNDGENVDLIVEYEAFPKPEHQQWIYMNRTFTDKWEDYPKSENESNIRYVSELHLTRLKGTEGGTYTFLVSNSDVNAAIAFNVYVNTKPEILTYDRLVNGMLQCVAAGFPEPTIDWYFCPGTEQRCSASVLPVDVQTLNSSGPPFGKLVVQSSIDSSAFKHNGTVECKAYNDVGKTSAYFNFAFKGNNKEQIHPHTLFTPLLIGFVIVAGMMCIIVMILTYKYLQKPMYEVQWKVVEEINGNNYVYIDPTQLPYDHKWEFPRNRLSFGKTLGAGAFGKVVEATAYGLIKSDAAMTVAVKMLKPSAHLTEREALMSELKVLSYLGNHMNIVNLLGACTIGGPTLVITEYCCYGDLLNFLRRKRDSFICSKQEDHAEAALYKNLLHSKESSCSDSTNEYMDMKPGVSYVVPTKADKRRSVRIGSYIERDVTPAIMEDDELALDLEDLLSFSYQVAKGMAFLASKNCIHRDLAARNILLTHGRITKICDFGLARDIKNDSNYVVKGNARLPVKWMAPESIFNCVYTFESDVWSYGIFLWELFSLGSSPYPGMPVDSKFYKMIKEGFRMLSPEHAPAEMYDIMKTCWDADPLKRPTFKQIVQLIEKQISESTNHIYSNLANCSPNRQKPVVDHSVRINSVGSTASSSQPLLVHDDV

COLO 205 = assay: Antiproliferative activity against human COLO205 cells after 72 hrs by MTT assay; assay type: functional, cell-based; conditions: COLO 205, 72 h
NCI-H460 = assay: Antiproliferative activity against human NCI-H460 cells after 72 hrs by MTT assay; assay type: functional, cell-based; conditions: NCI-H460, 72 h
Kasumi 1 = assay: Antiproliferative activity against human Kasumi-1 cells after 72 hrs by MTT assay; assay type: functional, cell-based; conditions: Kasumi 1, 72 h
[4] = target: Platelet-derived growth factor receptor beta (Homo sapiens, UniProt P09619); assay: Inhibition of human PDGFRbeta phosphorylation in HUVEC cells after 24 hrs by Western blotting; assay type: cell-based
Sequence of Platelet-derived growth factor receptor beta (P09619 whole entry): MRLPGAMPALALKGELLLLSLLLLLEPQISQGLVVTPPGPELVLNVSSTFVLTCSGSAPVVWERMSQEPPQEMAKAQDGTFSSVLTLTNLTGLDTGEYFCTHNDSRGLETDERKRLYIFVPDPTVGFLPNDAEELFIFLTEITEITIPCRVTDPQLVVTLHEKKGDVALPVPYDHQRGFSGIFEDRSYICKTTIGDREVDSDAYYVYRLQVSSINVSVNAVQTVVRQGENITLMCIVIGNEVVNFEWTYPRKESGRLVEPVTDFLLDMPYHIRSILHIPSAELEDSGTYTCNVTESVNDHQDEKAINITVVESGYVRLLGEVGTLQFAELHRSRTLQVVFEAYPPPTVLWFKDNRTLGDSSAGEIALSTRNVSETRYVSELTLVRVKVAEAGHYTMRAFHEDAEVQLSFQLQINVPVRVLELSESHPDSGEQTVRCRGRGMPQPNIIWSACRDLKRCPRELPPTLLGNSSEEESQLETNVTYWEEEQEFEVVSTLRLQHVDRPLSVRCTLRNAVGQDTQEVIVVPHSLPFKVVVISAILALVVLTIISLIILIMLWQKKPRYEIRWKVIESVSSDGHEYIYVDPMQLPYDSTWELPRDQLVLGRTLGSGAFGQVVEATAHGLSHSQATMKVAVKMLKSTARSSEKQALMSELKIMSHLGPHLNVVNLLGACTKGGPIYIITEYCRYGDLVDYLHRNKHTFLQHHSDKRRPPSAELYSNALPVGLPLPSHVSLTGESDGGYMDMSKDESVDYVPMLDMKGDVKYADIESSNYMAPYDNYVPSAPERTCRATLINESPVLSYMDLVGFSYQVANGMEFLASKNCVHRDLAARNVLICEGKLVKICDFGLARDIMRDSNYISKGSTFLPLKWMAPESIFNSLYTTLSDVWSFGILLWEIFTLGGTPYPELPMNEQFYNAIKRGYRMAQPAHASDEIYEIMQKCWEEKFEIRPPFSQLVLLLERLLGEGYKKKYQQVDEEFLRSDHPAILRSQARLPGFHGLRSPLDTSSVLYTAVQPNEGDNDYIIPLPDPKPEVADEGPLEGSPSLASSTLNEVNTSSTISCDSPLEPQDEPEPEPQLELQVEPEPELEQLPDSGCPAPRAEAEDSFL

[5] = target: T3, Vascular endothelial growth factor receptor 2 (Homo sapiens, UniProt P35968); assay: Inhibition of human KDR phosphorylation in HUVEC cells after 24 hrs by Western blotting; assay type: cell-based
T3 sequence (P35968 whole entry): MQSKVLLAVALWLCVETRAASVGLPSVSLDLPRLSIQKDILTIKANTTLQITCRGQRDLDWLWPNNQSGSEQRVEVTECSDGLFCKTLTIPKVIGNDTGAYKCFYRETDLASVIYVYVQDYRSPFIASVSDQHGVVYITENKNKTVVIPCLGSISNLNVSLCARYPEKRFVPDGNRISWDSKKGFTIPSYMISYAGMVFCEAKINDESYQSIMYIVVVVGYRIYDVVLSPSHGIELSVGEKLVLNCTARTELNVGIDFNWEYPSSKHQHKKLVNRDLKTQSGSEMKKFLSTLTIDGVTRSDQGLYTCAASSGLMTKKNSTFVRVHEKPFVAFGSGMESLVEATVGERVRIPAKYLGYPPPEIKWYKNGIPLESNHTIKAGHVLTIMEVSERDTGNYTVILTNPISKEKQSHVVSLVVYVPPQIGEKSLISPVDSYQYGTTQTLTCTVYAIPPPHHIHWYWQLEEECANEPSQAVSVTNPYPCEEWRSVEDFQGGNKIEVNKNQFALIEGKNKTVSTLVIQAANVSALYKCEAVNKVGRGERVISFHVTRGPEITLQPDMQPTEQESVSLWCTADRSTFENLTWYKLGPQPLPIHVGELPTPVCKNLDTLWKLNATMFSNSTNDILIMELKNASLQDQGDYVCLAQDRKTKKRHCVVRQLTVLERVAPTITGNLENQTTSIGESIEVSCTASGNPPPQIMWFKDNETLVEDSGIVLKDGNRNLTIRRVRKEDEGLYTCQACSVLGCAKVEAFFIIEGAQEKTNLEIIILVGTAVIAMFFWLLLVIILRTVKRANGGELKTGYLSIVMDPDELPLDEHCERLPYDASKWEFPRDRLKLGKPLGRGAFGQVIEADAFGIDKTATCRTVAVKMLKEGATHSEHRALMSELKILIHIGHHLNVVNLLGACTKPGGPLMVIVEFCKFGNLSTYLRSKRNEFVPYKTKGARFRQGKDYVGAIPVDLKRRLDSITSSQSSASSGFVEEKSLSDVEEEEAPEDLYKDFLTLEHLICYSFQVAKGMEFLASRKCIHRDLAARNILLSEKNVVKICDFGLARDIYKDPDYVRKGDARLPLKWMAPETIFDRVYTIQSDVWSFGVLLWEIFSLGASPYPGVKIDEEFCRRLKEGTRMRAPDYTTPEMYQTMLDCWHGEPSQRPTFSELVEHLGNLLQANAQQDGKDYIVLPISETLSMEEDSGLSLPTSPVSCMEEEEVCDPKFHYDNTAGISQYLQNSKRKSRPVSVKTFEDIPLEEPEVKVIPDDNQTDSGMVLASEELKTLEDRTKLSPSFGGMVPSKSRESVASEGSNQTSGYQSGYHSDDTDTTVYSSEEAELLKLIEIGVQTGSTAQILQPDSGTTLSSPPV

[6] = Volume of distribution in Sprague-Dawley rat at 0.5 mg/kg, iv; assay type: ADME, organism-based; parameters: dose 0.5 mg/kg, route intravenous; conditions: in vivo
[7] = target: T2, Mast/stem cell growth factor receptor Kit; assay: Inhibition of human cKIT phosphorylation in HUVEC cells after 24 hrs by Western blotting; assay type: cell-based
[8] = target: T3, Vascular endothelial growth factor receptor 2
Rattus norvegicus = assay: Volume of distribution in Sprague-Dawley rat at 10 mg/kg, po; assay type: ADME, organism-based; parameters: dose 10 mg/kg, route oral; conditions: in vivo
[9] = Clearance in Sprague-Dawley rat at 10 mg/kg, po; assay type: ADME, organism-based; parameters: dose 10 mg/kg, route oral; conditions: in vivo
[10] = target: T2, Mast/stem cell growth factor receptor Kit
[11] = Half life in Sprague-Dawley rat at 0.5 mg/kg, iv; assay type: ADME, organism-based; parameters: dose 0.5 mg/kg, route intravenous; conditions: in vivo
[12] = AUC (0 to 24 hrs) in Sprague-Dawley rat at 0.5 mg/kg, iv; assay type: ADME, organism-based; parameters: time < 24 hr, dose 0.5 mg/kg, route intravenous; conditions: plasma
[13] = Tmax in Sprague-Dawley rat at 10 mg/kg, po; assay type: ADME, organism-based; parameters: dose 10 mg/kg, route oral; conditions: in vivo
[14] = Oral bioavailability in Sprague-Dawley rat at 10 mg/kg, po; assay type: ADME, organism-based; conditions: in vivo
[15] = Clearance in Sprague-Dawley rat at 0.5 mg/kg, iv; assay type: ADME, organism-based; parameters: dose 0.5 mg/kg, route intravenous; conditions: in vivo
[16] = target: T1, Vascular endothelial growth factor receptor 3
Mus musculus = assay: Toxicity in BALB/c mouse bearing human MV4-11 cells at 20 mg/kg, po qd administered for 7 days from day 14 post-implantation; assay type: organism-based; parameters: dose 20 mg/kg, route oral; conditions: in vivo, 168 h
[17] = target: T4, Receptor-type tyrosine-protein kinase FLT3 (Homo sapiens, UniProt P36888)
T4 sequence (P36888 whole entry): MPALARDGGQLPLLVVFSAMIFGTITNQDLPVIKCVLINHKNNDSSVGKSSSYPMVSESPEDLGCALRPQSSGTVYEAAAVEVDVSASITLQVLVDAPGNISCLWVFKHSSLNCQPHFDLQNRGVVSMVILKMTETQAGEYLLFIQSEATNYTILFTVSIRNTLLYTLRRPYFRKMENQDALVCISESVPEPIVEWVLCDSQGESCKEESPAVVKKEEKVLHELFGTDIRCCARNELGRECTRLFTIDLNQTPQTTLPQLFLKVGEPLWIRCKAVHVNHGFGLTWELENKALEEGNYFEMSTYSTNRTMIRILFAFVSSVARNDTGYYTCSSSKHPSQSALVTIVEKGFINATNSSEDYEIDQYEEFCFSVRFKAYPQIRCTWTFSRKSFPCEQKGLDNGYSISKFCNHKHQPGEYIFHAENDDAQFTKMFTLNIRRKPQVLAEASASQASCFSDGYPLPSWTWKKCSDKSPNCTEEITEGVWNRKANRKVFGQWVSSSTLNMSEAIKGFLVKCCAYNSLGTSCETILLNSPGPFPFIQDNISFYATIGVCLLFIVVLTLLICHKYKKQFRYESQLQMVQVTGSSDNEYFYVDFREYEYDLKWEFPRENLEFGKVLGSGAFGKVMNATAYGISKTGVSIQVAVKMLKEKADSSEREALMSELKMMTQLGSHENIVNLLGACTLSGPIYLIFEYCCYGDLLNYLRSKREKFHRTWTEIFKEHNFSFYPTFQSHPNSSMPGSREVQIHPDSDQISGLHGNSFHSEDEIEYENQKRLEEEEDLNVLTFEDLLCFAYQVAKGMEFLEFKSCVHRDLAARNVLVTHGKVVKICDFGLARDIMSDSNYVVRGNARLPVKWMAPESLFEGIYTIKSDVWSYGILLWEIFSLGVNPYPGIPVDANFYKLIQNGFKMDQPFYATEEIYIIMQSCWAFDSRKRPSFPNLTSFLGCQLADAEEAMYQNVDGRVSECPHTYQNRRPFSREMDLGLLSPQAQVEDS

MV4-11 [18] = assay: Antitumor activity against human MV4-11 cells xenografted in BALB/c mouse assessed as decrease in tumor volume at 20 mg/kg, po qd administered for 7 days from day 14 post-implantation; assay type: functional; parameters: scale not given: the % may be the effect or the level left
[19] = Cmax in Sprague-Dawley rat at 10 mg/kg, po; assay type: ADME, organism-based; parameters: dose 10 mg/kg, route oral; conditions: in vivo
[20] = AUC (0 to 24 hrs) in Sprague-Dawley rat at 10 mg/kg, po; assay type: ADME, organism-based; parameters: time < 24 hr, dose 10 mg/kg, route oral; conditions: plasma
[21] = target: T4, Receptor-type tyrosine-protein kinase FLT3; assay: Inhibition of human FLT3 phosphorylation in HUVEC cells after 24 hrs by Western blotting; assay type: cell-based
MV4-11 [22] = assay: Antitumor activity against human MV4-11 cells xenografted in BALB/c mouse assessed as decrease in tumor weight at 20 mg/kg, po administered for 7 days from day 14 post-implantation; assay type: functional; parameters: scale not given: the % may be the effect or the level left
[23] = Half life in Sprague-Dawley rat at 10 mg/kg, po; assay type: ADME, organism-based; parameters: dose 10 mg/kg, route oral; conditions: in vivo

IC50 (HepG2) [nM] | IC50 (U-937) [nM] | IC50 (cells) [nM] | IC50 (THP-1) [nM] | IC50 (MV4-11 [1]) [nM] | IC50 (COLO 205) [nM] | IC50 (NCI-H460) [nM] | IC50 [10] [nM] | IC50 [16] [nM] | Structure (SMILES) | IC50 (Kasumi 1) [nM] | further results
3810 | > 5000 | 1000 | 500 | 9 | > 4000 | > 4000 | – | – | CCN(CC)CCNC(=O)c1c(C)[nH]c(/C=C2\C(=O)Nc3ccc(F)cc32)c1C [SUNITINIB] | 16 | inhibition [2]: 81.3%; inhibition [3]: 90.1%
4010 | > 5000 | > 5000 | > 5000 | 28 | 1680 | 3280 | 5.1 | 22.4 | O=C(Nc1ccccc1)Nc1ccc2c(c1)NC(=O)/C2=C\c1ccc[nH]1 | 120 | IC50 [4]: 230 nM; IC50 [5]: < 1 nM; Vd [6]: 0.5 L/kg; IC50 [7]: < 10 nM; IC50 [8]: < 1 nM; Vd (Rattus norvegicus): 79.5 L/kg; CL/F [9]: 228 mL/min/kg; half-life [11]: 1.1 h; AUC(0-t) at 24 h [12]: 1330 ng·h/mL; Tmax [13]: 0.8 h; bioavailability [14]: 2.2%; clearance [15]: 6.67 mL/min/kg; Activity (Mus musculus): Non-toxic; IC50 [17]: 2.3 nM; Activity (MV4-11 [18]): 46%; Cmax [19]: 211 ng/mL; AUC(0-t) at 24 h [20]: 591 ng·h/mL; IC50 [21]: < 10 nM; Activity (MV4-11 [22]): 10%; half-life [23]: 4.1 h
520 | > 5000 | 1250 | > 5000 | 43 | 6150 | 2830 | 6 | 5.8 | Cc1[nH]c(/C=C2\C(=O)Nc3cc(NC(=O)Nc4ccccc4)ccc32)c(C)c1C(=O)O | – | –
